# Reference: patent US10155985B2, “Evaluation of eosinophilic esophagitis” (CHILDREN'S HOSPITAL MEDICAL CENTER, priority 2004, dated 2018)
# B1: SEQ_ID_#43 (nucleic acid, listed as Homo sapiens)
# DNA: TTCACTTTTTCATTATTTTATTGTTGTTTTAGTAGCATTTTGAGGTGAATGTATGCATAATCAGTGAATTAGACAAGCATGCACATACATGATATCTGATCAAACATTTTTTTGTCTCTCATCATCCTCATAAAATTTATTCAGTGGGAGAAGCTTTTTCTTCCATCAGATACATTCCAGTTGTATGCCAACATACTCAGGTAAGAGCAACATTTTGGTCATTTTAAATAGTTTGGTAATTATGACTCCCAGTCGCCTACAATAAGAAGAAACTACAATAATTTAGTACTAAATTTTTCTTCCCTCTCCAACTGAGTCTTGTGTTGAGTTGCCTACTTGCGCTAGCACATCTTCCCTTGCTGGTTGACATTTTTGCTAAGATTTCTCCCTCTCCTTCCACCCCACCTTGGACACGGAGGTTTCTGGCCTCCCTTTCCCCAAGGTCCCCAAAAAAAGAAATCTGTCTTATGAGATAGGGCTGCCTTCACATGGTGTCAGGGTTCTCTGGATAGTAATTGTGTGTAATAAGAGAGGGAGCATTCAAGAACTCCCATAGAAATTCTCATAGCCCTGACTTCTCATCTTTAGCTTGTGTAGATTTTTTTGTATTCCAGGTGGTCATTTGTGACTCCTTCCTCATCCCACAATCTGGCTTCACCTCCCACTTCTTGATGCTGGGTTCCCTCCACCTCTTTGGACAACCTATCAGAGAGGACCTAAAGAGCCCATGCTGACTTCACTCTTGCATGTCTCACTATGGTTCATGGGAAACCACACATCCATTGCCCTGACAACACTAGACATACAGGC
# B2: SEQ_ID_#52 (nucleic acid, listed as Homo sapiens)
# DNA: TTTTTTTCCAAGGGGAGAATGAAGCCATTTTATTTAGGGGAATGTTAAAACAAAGCCATATACAATCTGTAACAAATACAATACAATTGTTTGTTCCCTAGTCCTGAATAATTACAGTATATACAAAATCTGTAAGGCACTGGTTCCCCCAAAAGAACAAATGAGTCTTCTTGTGAAACAGACAACGAAACCCCTATATTGCCAACTTTTCTCCAAAAAATATGGCATTGTTTTTTTGTTTTGTTTTACAAGAGGAATCACAATTGCTAAATTAAGTCACTTCTGATGCCATTTCTTTCATTTCCACTGCTATGTGTCTGGGTTTTCTAAGGCAATGTAACTACTGAACATGTTCAAGTTTAAAAAACTATACTTCTCTCAGTGCCGTTCCACCCACAAACAAAGAAGAATCAGATCA
# B3: SEQ_ID_#245 (nucleic acid, listed as Homo sapiens)
# DNA: TTTTTTTTTTGTATTTTTTGCAGGGACAGGGTTTCACCATATTGCTCAGGGTAGTCTCGAACTCCTGAGCTCAAGGGATCCACCCTGCCTTGGCCTCCCAGTGTGCTGGGATTTCACACGTGAGCCACCGAGCCCAGCTACATTCTTATTTCCTAAACTTTACAAGTTCACACTCTTCCCTTTAAACAAATGTGCCCCCTCTGGCGGTGTCATTTGAGTCCCGGTGTATGTCATTAAGCCTCTTAACCTCAACCACTACTTCCCACTGAAATAACTCTATTTTCTTTTTTTCTAATGAAAAAGTAAGACATGTTCTATGTAAAAATTAAAATATGGTGAGCACTTACCACTTACTATGAGCCAGGCATTGAACTAAGTATTTTTTAATCTTATTTTCATCCTCGTGATATGAGGTCAGTGCTTTGATGAGTTCCATTTTACGTAAGAAAGTAGTTAAG
# Experiments:
# eosinophilic esophagitis = conditions: cited from earlier work
# EE transcriptome [1] = test: EE transcriptome of EE patients after fluticasone propionate treatment; type: in vivo, human; conditions: EE patients treated; FIG. 6
# Procedure: The data were analyzed by cluster analysis and ordered (standard correlation (A) and distance (B)) using Genespring software. […] Each column represented a separate individual and each line a gene. RNA from each patient was subjected to chip analysis using Affymetrix Human Genome U133 GeneChip plus 2.
# In one embodiment, the EE transcriptome was used to evaluate EE patients pre- and post-treatment regimens.
# This group of 13 non-responsive genes is SEQ ID NOS. 6, 35, 43, 61, 129, 1358, 1441, 1515, 1538, 1584, 1615, 1618, and 1620. Evaluation of these genes provides a marker of past, present, and/or future active disease, especially in the absence of overt disease. […] Thus, these 13 genes can be used to evaluate a patients propensity to EE, particularly in the absence of clinical or physical symptoms of EE or microscopic findings typical of EE. […] These 13 genes can be used to evaluate EE in an asymptomatic population or when past EE is suspected in a non-active EE individual at the time of endoscopy.
# [2] = system: esophageal epithelial cells; test: Transcriptome of esophageal epithelial cells stimulated with IL-13, compared to the EE transcriptome; type: cell-based
# Excerpt: In one embodiment, the EE transcriptome was compared to transcriptomes in cell/tissues that had been treated with one or more compounds potentially involved with and/or efficacious against EE. By comparing the EE transcriptome to the transcriptome of, e.g., a simple in vitro or ex vivo model of a particular compound, one can assess the percentage of genes that are dysregulated in EE due to that particular compound.
# For example, in ex vivo or in vitro models, a compound was used to stimulate an esophageal cell type.
# EE transcriptome [3] = test: Genome-wide microarray transcript profiling of esophageal biopsies, EE patients vs normal individuals (EE transcriptome); conditions: transcript level in esophageal biopsies of EE patients (n=76) compared to normal individuals (n=13); Affymetrix Human Genome U133 plus 2; p<0.01
# Procedure, shortened: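 Distal esophageal biopsies from EE patients (n=76; >24 eosinophils/hpf, basal hyperplasia) and normal controls (n=13; 0 eosinophils/hpf) profiled on Affymetrix Human Genome U133 plus 2 chips. Expression by absolute call and average difference, global scaling; transcriptome genes defined as p<0.01 (Welch t-test) and ≥1.5-fold change.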
molecule,measurement,setting,value
CCC(=O)O[C@]1(C(=O)SCF)[C@H](C)C[C@H]2[C@@H]3C[C@H](F)C4=CC(=O)C=C[C@]4(C)[C@@]3(F)[C@@H](O)C[C@@]21C [fluticasone propionate],effect on EE disease,eosinophilic esophagitis; Gastroenterology 131 (2006) 1381,induce EE disease remission
same,effect on EE gene dysregulation,"eosinophilic esophagitis; J. Allergy Clin. Immunol. 120 (2007) 1292, U.S. Ser. No. 61/118,981",reverse EE gene dysregulation
same,number of EE transcriptome genes normalized by treatment,EE transcriptome [1],1605 genes/1620 genes
same,number of EE transcriptome genes resistant to treatment,EE transcriptome [1],13 genes/1620 genes
same,share of the EE transcriptome resistant to treatment,EE transcriptome [1],less than 1%
interleukin 13 [IL-13],share of the genes of the EE transcriptome potentially due to stimulation of esophageal epithelial cells,[2],20%
B1,Fold Change,EE transcriptome [3],5.944
B2,Fold Change,EE transcriptome [3],5.183
B3,Fold Change,EE transcriptome [3],2.303
